For one experiment, the target named is Estrogen receptor beta (Homo sapiens, UniProt Q92731).
In experiment [1] the target is T1, Estrogen receptor (Homo sapiens, UniProt P03372).
T1 sequence (P03372 whole entry): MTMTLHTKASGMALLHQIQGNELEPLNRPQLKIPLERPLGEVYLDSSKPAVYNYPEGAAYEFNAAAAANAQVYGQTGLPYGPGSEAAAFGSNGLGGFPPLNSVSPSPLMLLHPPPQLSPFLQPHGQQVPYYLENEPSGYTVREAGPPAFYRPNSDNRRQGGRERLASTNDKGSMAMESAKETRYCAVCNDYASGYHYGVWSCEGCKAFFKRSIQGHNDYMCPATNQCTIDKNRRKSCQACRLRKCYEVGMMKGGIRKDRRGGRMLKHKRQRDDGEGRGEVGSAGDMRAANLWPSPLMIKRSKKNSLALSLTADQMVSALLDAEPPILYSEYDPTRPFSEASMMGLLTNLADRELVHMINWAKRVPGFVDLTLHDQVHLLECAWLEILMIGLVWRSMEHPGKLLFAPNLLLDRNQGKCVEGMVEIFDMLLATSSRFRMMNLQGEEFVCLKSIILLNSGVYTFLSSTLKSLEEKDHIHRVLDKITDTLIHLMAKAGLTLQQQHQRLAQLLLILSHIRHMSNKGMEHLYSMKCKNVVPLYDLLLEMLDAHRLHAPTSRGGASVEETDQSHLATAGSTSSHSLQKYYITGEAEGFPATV
Description: Binding affinity for estrogen receptor alpha

Experiment [2] has as its target Estrogen receptor (Homo sapiens, UniProt Q92731+P03372).
Description: Inhibition of estradiol-stimulated MCF-7 breast adenocarcinoma cell proliferation

Results on seven compounds are retold here after ChEMBL document CHEMBL1136521, “Tetrahydroquinoline-based selective estrogen receptor modulators (SERMs)” (Bioorg Med Chem Lett, 2003).

The structures appear in SMILES notation. A value given as a limit tells only on which side of the number the result lay.

Sequence of Estrogen receptor beta (Q92731 whole entry): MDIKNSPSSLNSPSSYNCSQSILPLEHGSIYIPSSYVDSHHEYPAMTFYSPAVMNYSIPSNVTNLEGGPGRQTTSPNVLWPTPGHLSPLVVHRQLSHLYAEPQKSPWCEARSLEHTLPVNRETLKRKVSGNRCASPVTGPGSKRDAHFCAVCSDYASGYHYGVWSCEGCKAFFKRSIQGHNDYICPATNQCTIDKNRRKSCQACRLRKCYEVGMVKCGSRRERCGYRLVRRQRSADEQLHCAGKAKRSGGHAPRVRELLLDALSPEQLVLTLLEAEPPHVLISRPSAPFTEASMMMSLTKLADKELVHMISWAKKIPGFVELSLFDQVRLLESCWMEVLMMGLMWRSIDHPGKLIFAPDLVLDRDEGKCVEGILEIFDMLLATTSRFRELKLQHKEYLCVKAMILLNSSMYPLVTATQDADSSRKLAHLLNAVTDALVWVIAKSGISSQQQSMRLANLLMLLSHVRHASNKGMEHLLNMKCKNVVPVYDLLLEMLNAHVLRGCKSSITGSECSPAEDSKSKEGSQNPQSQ
Description for Estrogen receptor beta: Binding affinity for estrogen receptor beta

Broadly, the Ki is the dissociation constant of the complex between target and ligand, obtained from inhibition or displacement. A high value points to lower affinity. As for `Oc1ccc(C2CCc3cc(O)ccc3N2)cc1` (stereo not given), the Ki at Estrogen receptor beta is 65 nM; on Estrogen receptor [1], 170 nM.
By IC50 is commonly meant the midpoint of a concentration-inhibition curve. A higher IC50 goes with a need for much substance. Compound `O=C(c1ccc(OCCN2CCCCC2)cc1)N1c2ccc(O)cc2CCC1c1ccc(O)cc1` (stereo not given) displayed a Ki at Estrogen receptor beta of over 1000 nM. Also, at Estrogen receptor [2], the IC50 is 990 nM.
On to `Oc1ccc(C2CCc3cc(O)ccc3N2Cc2ccc(OCCN3CCCC3)cc2)cc1` (stereo not given), for which the affinity at Estrogen receptor [1], expressed as Ki, was 1.1 nM. This compound also yielded a half-inhibitory concentration (IC50) on Estrogen receptor [2] of 68 nM.
`Oc1cccc(C2CCc3cc(O)ccc3N2Cc2ccc(OCCN3CCCCC3)cc2)c1` (stereo not given): the inhibition constant Ki on Estrogen receptor beta was 5.5 nM.
As for `O=C(c1ccc(OCCN2CCCCC2)cc1)N1c2ccc(O)cc2CCC1c1cccc(O)c1` (stereo not given), the Ki on Estrogen receptor beta was over 1000 nM; at Estrogen receptor [1] it was 37 nM. The compound also registered a 50% inhibitory concentration (IC50) against Estrogen receptor [2] of 590 nM.
For `Oc1ccc(-c2ccc3cc(O)ccc3n2)cc1`, the Ki on Estrogen receptor beta was 35 nM; on Estrogen receptor [1], 310 nM.
Take `Oc1ccc2c(c1)CCC(c1ccccc1)N2Cc1ccc(OCCN2CCCCC2)cc1` (stereo not given): the values for the inhibitory constant (Ki) on Estrogen receptor beta and at Estrogen receptor [1] were 4 nM and 1.7 nM, respectively. On Estrogen receptor [2], the concentration for half-maximal inhibition (IC50) is 490 nM.
